According to patent US8420630B2 (Boehringer Ingelheim Pharma GmbH & Co. KG, priority 2001, dated 2013):

What was measured:
CDK1/cyclinB1 = target: T1, CDK1/cyclinB1 (Homo sapiens, UniProt P06493); assay: Cyclin B1-CDK1 kinase inhibition test; type: biochemical; details: CDK1 tests (Example 13); recombinant cyclin B1/CDK1, substrate histone H1; read-out: CDK1/cyclinB1 IC50 value
T1 construct: made in house; host or cells: High Five insect cells (Trichoplusia ni), baculovirus coinfection
Summary of the method: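 Baculovirus-expressed CDK1/cyclin B1 phosphorylated histone H1 with ATP mix containing 0.045 mM ATP plus ^33P-ATP for 30 min at 30 °C. Protein was precipitated with TCA and filter-bound radioactivity read by scintillation counting. Olomoucin at 30 and 300 μM final served as internal control.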

cell culture = details: Ongkeko et al., 1995, J. Cell Sci., 108, 2897; cited from earlier work

T1 sequence (P06493 whole entry): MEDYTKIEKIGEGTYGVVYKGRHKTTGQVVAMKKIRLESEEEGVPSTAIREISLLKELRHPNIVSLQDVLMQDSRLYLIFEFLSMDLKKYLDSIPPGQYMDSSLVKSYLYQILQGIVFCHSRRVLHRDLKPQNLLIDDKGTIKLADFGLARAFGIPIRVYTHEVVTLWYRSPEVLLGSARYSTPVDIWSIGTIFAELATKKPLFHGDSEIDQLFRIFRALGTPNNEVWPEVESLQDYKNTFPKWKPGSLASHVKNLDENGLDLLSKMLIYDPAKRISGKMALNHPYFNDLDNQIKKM
T1 sequence (P14635 whole entry partner): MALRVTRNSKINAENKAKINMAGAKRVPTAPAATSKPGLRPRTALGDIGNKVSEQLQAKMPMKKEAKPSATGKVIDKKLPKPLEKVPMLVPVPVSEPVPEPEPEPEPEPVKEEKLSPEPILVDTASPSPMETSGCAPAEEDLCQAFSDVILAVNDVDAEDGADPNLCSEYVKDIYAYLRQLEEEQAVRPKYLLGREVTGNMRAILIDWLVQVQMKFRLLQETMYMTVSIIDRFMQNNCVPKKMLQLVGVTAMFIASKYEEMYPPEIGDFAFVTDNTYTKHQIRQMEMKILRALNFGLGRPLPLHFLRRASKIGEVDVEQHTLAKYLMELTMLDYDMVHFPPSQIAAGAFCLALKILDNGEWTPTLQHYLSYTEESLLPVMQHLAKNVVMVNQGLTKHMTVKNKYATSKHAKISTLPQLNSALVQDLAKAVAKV

Structure (SMILES) | IC50 (CDK1/cyclinB1) [nM] | also measured
CC(=O)NCCNc1nc(Nc2ccc(C(=O)O)cc2)ncc1[N+](=O)[O-].Cl | – | melting point: 171 to 173 °C
CC(=O)NCCNc1nc(Nc2ccc(Cl)c(Cl)c2)ncc1[N+](=O)[O-] [Example 1, 2-(3,4-dichlorophenylamino)-4-(2-acetylamino-ethylamino)-5-nitro-pyrimidine] | – | melting point: 200 to 201 °C
CC(=O)NCCNc1nc(Nc2ccc(C(=O)O)cc2)ncc1C(C)C [Example 6, 4-[4-(2-acetylamino-ethylamino)-5-isopropyl-pyrimidin-2-ylamino]-benzoic acid] | – | melting point: 275 to 278 °C
Cn1ncc2ccc(Nc3ncc(C(F)(F)F)c(NCCCNS(=O)(=O)c4ccc(F)cc4)n3)cc21 [Example 7(012), 4-fluoro-N-{3-[2-(1-methyl-1H-indazol-6-ylamino)-5-trifluoromethyl-pyrimidin-4-ylamino]-propyl}-benzensulphonamide] | < 100 | –
COCC(=O)NCCCNc1nc(Nc2ccc3cnn(C)c3c2)ncc1C(F)(F)F [Example 7(013), 2-methoxy-N-{3-[2-(1-methyl-1H-indazol-6-ylamino)-5-trifluoromethyl-pyrimidin-4-ylamino]-propyl}-acetamide] | < 100 | –
CC(C)CC(=O)NCCCNc1nc(Nc2ccc3cnn(C)c3c2)ncc1C(F)(F)F [Example 7(015), 3-methyl-N-{3-[2-(1-methyl-1H-indazol-6-ylamino)-5-trifluoromethyl-pyrimidin-4-ylamino]-propyl}-butyramide] | < 100 | –
Cn1ncc2ccc(Nc3ncc(C(F)(F)F)c(NCCCNC(=O)Cc4ccccc4)n3)cc21 [Example 7(021), N-{3-[2-(1-methyl-1H-indazol-6-ylamino)-5-trifluoromethyl-pyrimidin-4-ylamino]-propyl}-2-phenyl-acetamide] | < 100 | –
COC(=O)NCCCNc1nc(Nc2ccc3cnn(C)c3c2)ncc1C(F)(F)F [Example 7(022)] | < 100 | –
CC(C)COC(=O)NCCCNc1nc(Nc2ccc3cnn(C)c3c2)ncc1C(F)(F)F [Example 7(024)] | < 100 | –
CC(=O)NCCCNc1nc(Nc2ccc(C(N)=O)cc2)ncc1C(F)(F)F [Example 7(027), 4-[4-(3-acetylamino-propylamino)-5-trifluoromethyl-pyrimidin-2-ylamino]-benzamide] | < 100 | –
COCC(=O)NCCCNc1nc(Nc2ccc(C(N)=O)cc2)ncc1C(F)(F)F [Example 7(028), 4-[4-(3-(2-methoxy-acetamino)-propylamino)-5-trifluoromethyl-pyrimidin-2-ylamino]-benzamide] | < 100 | –
CN(C)CC(=O)NCCCNc1nc(Nc2ccc(C(N)=O)cc2)ncc1C(F)(F)F [Example 7(029), 4-(4-[3-(2-dimethylamino-acetylamino)-propylamino]-5-trifluoromethyl-pyrimidin-2-ylamino)-benzamide] | < 100 | –
CCN(CC)C(=O)NCCCNc1nc(Nc2ccc3cnn(C)c3c2)ncc1C(F)(F)F [Example 7(032), 1,1-diethyl-3-{3-[2-(1-methyl-1H-indazol-6-ylamino)-5-trifluoromethyl-pyrimidin-4-ylamino]-propyl}-urea] | < 100 | –
CN(C)C(=O)NCCCNc1nc(Nc2ccc3cnn(C)c3c2)ncc1C(F)(F)F [Example 7(035), 1,1-dimethyl-3-{3-[2-(1-methyl-1H-indazol-6-ylamino)-5-trifluoromethyl-pyrimidin-4-ylamino]-propyl}-urea] | < 100 | –
CC(C)NC(=O)NCCCNc1nc(Nc2ccc3cnn(C)c3c2)ncc1C(F)(F)F [Example 7(036), 1-isopropyl-3-{3-[2-(1-methyl-1H-indazol-6-ylamino)-5-trifluoromethyl-pyrimidin-4-ylamino]-propyl}-urea] | < 100 | –
O=C(NCCNc1nc(Nc2ccc(Cl)c(Cl)c2)ncc1C(F)(F)F)c1ccccc1 [Example 7, N-(2-[2-(3,4-dichloro-phenylamino)-5-trifluoromethyl-pyrimidin-4-ylamino]-ethyl)-benzamide] | – | melting point: 160 to 162 °C

Structure (SMILES) | IC50 (CDK1/cyclinB1) [nM] | also measured
CNC(=O)c1ccc(Nc2ncc(C(F)(F)F)c(NCCNC(C)=O)n2)cc1Cl [Example 8(003), 4-[4-(2-acetylamino-ethylamino)-5-trifluoromethyl-pyrimidin-2-ylamino]-2-chloro-N-methyl-benzamide] | < 100 | –
CC(=O)NCCNc1nc(Nc2ccc(C(=O)N(C)C)c(Cl)c2)ncc1C(F)(F)F [Example 8(007), 4-[4-(2-acetylamino-ethylamino)-5-trifluoromethyl-pyrimidin-2-ylamino]-2-chloro-N,N-dimethyl-benzamide] | < 100 | –
CC(=O)NCCNc1nc(Nc2ccc(C(=O)Nc3ccccn3)cc2)ncc1C(F)(F)F [Example 8(024), 4-[4-(2-acetylamino-ethylamino)-5-trifluoromethyl-pyrimidin-2-ylamino]-N-pyridin-2-yl-benzamide] | < 100 | –
CC(=O)NCCNc1nc(Nc2ccc(C(=O)NCc3cc(F)cc(F)c3)cc2)ncc1C(F)(F)F [Example 8(026), 4-[4-(2-acetylamino-ethylamino)-5-trifluoromethyl-pyrimidin-2-ylamino]-N-(3,5-difluorobenzyl)-benzamide] | < 100 | –
CC(=O)NCCNc1nc(Nc2ccc(C(=O)NC(C)c3ccccc3)cc2)ncc1C(F)(F)F (centres unmarked) [Example 8(028), 4-[4-(2-acetylamino-ethylamino)-5-trifluoromethyl-pyrimidin-2-ylamino]-N-(1-phenyl-ethyl)-benzamide] | < 100 | –
CNC(=O)c1ccc(Nc2ncc(C(F)(F)F)c(NCCNC(C)=O)n2)cc1 [Example 8, 4-[4-(2-acetylamino-ethylamino)-5-trifluoromethyl-pyrimidin-2-ylamino]-N-methyl-benzamide] | – | melting point: 183 °C
CC(=O)NCCNc1nc(Nc2ccc(C(=O)O)cc2)ncc1C(F)(F)F [Example 9(001), 4-[4-(2-acetylamino-ethylamino)-5-trifluoromethyl-pyrimidin-2-ylamino]-benzoic acid] | < 100 | –
CC(=O)NCCNc1nc(Nc2cccc(C(=O)O)c2)ncc1C(F)(F)F [Example 9, 3-[4-(2-acetylamino-ethylamino)-5-trifluoromethyl-pyrimidin-2-ylamino]-benzoic acid] | – | melting point: 282 °C
CC(=O)NCCNc1nc(Nc2cccc(NC(C)=O)c2)ncc1C(F)(F)F [Example 10(000), N-(2-[2-(3-acetylamino-phenylamino)-5-trifluoromethyl-pyrimidin-4-ylamino]-ethyl)-acetamide] | < 100 | melting point: 222 °C
CC(=O)NCCNc1nc(Nc2ccc(NS(C)(=O)=O)cc2)ncc1C(F)(F)F [Example 10(014), N-(2-[2-(4-methanesulphonylamido-phenylamino)-5-trifluoromethyl-pyrimidin-4-ylamino]-ethyl)-acetamide] | < 100 | –
CC(=O)NCCNc1nc(Nc2cccc(NS(=O)(=O)c3ccccc3)c2)ncc1C(F)(F)F [Example 10(015), N-(2-[2-(3-phenylsulphonylamido-phenylamino)-5-trifluoromethyl-pyrimidin-4-ylamino]-ethyl)-acetamide] | < 100 | –
CC(=O)NCCNc1nc(Nc2ccc(NS(=O)(=O)c3ccccc3)cc2)ncc1C(F)(F)F [Example 10(016), N-(2-[2-(4-phenylsulphonylamido-phenylamino)-5-trifluoromethyl-pyrimidin-4-ylamino]-ethyl)-acetamide] | < 100 | –
O=C1CCCN1CCCNc1nc(Nc2cccc(CNCC(F)(F)F)c2)ncc1C(F)(F)F [Example 11(034), 1-[3-(2-{3-[(2,2,2-Trifluoro-ethylamino)-methyl]-phenylamino}-5-trifluoromethyl-pyrimidin-4-ylamino)-propyl]-pyrrolidin-2-one] | < 100 | –
CC(=O)NCCNc1nc(Nc2cccc(CN3CCCCC3)c2)ncc1C(F)(F)F [Example 11, N-{2-[2-(3-piperidin-1-ylmethyl-phenylamino)-5-trifluoromethyl-pyrimidin-4-ylamino]-ethyl}-acetamide] | – | melting point: 93 to 94 °C
Cn1cnc2c(NCc3ccccc3)nc(NCCO)nc21 [olomoucine] | – | effect with cytotoxic substances in cell culture (cell culture): synergistic effect
